Activity calls are given as the source filed them.

One test concerns the target Beta-lactamase (Salmonella choleraesuis (strain SC-B67), UniProt Q5J463).
The target in another test is T1, Caspase-6 (Homo sapiens, UniProt P55212).
T1 sequence (P55212 whole entry): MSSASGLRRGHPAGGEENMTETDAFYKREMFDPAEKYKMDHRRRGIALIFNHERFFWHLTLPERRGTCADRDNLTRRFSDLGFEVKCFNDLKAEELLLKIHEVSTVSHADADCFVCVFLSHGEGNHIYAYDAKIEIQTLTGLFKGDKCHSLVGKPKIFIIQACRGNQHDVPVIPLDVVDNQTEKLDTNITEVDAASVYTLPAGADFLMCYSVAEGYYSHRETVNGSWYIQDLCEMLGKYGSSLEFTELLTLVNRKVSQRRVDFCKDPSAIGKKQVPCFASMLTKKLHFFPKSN
Nature of the test: human caspase-6 inhibitors, dose response, biochemical, VEID-R110 fluorescence, cherry-pick (AID 720632).

The target in test [1] is Dual specificity protein phosphatase 6 (Rattus norvegicus, UniProt Q64346). The test can be described thus: MKP-3 phosphatase inhibitors, primary screen, biochemical, rat enzyme, in vitro (AID 425).
Sequence of Dual specificity protein phosphatase 6 (Q64346 whole entry): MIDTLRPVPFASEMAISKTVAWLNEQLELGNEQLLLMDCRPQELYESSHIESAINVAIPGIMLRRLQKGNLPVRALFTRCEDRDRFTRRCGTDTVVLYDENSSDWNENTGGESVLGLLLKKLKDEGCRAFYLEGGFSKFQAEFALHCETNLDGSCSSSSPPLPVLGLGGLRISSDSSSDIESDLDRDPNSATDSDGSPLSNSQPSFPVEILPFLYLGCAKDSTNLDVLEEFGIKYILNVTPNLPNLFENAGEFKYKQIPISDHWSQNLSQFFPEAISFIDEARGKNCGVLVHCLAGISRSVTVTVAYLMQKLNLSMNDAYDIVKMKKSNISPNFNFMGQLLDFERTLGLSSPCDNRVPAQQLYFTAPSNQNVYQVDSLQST
Test [2] concerns the target Serine/threonine-protein phosphatase (Homo sapiens, UniProt Q9BPW0). Nature of the test: PP5 phosphatase inhibitors, dose response, biochemical, fluorescence (AID 2395).
Test [3] has as its target Mothers against decapentaplegic homolog 3 (Homo sapiens, UniProt P84022). The test can be described thus: SMAD3 transcription factor inhibitors, dose response (AID 715). In kind it is functional.
The target of test [4] is T2, Sentrin-specific protease 7 (Homo sapiens, UniProt Q9BQF6).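 Also: Luminescence-based dose-response confirmation of ultra-high-throughput screening hits, measuring inhibition of SENP7.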
T2 sequence (Q9BQF6 whole entry): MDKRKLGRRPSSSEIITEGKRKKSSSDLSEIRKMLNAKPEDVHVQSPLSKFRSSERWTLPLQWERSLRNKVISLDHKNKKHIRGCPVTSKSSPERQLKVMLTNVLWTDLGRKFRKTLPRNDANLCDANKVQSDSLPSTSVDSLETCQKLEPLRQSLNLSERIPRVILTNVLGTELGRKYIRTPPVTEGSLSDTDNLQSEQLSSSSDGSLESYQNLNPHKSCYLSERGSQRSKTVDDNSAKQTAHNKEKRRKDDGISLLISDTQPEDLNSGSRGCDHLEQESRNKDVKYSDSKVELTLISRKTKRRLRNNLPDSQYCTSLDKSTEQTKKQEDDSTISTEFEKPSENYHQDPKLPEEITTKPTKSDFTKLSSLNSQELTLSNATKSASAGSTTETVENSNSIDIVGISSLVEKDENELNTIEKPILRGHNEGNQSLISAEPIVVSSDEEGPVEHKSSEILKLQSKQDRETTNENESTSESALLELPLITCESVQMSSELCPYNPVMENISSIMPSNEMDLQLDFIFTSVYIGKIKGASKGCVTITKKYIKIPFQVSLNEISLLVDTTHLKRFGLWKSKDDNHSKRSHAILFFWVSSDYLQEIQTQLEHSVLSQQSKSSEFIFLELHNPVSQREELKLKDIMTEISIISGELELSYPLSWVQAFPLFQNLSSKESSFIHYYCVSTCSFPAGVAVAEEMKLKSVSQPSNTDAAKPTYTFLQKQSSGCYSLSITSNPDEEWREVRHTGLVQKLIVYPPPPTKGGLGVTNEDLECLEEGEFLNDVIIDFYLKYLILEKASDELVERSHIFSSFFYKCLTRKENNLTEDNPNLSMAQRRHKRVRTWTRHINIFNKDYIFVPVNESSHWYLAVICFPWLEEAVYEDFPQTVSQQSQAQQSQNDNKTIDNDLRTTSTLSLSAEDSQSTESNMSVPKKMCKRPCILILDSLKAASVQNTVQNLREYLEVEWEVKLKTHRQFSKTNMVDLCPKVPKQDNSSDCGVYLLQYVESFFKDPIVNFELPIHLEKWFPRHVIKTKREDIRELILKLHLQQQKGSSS
In kind it is functional.

Sequence of Beta-lactamase (Q5J463 whole entry): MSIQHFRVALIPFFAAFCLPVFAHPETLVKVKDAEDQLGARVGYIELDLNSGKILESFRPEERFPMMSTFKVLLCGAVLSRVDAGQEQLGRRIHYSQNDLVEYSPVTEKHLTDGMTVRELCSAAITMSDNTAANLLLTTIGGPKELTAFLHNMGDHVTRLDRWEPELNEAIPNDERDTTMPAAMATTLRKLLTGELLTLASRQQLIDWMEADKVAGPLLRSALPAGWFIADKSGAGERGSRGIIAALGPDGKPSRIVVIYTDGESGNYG
Sequence of Serine/threonine-protein phosphatase (Q9BPW0 whole entry): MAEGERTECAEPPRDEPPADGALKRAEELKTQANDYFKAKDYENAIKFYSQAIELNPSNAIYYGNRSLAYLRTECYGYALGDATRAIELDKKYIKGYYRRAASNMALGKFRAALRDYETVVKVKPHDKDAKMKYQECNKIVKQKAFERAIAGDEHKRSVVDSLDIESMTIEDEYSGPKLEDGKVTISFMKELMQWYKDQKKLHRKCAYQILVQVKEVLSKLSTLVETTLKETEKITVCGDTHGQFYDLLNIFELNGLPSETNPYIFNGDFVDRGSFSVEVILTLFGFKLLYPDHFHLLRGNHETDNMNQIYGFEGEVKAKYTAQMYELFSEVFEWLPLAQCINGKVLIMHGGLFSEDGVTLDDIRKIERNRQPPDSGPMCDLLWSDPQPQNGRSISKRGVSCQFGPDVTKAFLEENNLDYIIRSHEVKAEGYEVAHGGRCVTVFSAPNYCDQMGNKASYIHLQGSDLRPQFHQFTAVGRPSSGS
Sequence of Mothers against decapentaplegic homolog 3 (P84022 whole entry): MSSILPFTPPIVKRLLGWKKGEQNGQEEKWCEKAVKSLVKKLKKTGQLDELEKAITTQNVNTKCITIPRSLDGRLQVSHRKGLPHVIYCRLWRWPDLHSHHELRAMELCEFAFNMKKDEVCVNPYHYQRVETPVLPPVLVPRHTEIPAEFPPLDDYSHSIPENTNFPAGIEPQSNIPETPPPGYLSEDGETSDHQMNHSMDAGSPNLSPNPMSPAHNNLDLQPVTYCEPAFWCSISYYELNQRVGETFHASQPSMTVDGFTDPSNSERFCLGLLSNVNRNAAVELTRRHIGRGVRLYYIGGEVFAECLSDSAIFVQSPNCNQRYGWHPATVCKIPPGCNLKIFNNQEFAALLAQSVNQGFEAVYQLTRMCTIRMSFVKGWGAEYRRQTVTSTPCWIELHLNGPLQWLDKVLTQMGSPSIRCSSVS

With `COc1cc(OC)c(-c2c3cc(O)c(=O)cc-3oc3cc(O)c(O)cc23)cc1OC`, at Beta-lactamase, the IC50 (in general, the midpoint of a concentration-inhibition curve) is 2.13 µM (active). Besides, the AC50 (usually the midpoint of the concentration-response curve, whichever way the signal moves) on Caspase-6 was 0.0367 µM (active).
As for `Oc1nc(Nc2ccccc2)cc2ccccc12`, the half-inhibitory concentration (IC50) was > 100 µM (not active) in test [1], 31.6 µM (not active) in test [2], 19.6 µM (active) in test [3] and 0.75 µM (active) in test [4].

These data come from ChEMBL document CHEMBL1201862, “PubChem BioAssay data set” (2004).
